Data from PMC11978698, “Differential uptake of arginine derivatives by the human heteromeric amino acid transporter b^0,+AT-rBAT (SLC7A9-SLC3A1)” (Naunyn-Schmiedeberg's Archives of Pharmacology, 2024).

Experiments:
[1] = molecular target: T1, b0,+AT (SLC7A9), in the heteromeric transporter b0,+AT-rBAT (Homo sapiens, UniProt P82251); assay: cell-based
T1 sequence (P82251 1-487): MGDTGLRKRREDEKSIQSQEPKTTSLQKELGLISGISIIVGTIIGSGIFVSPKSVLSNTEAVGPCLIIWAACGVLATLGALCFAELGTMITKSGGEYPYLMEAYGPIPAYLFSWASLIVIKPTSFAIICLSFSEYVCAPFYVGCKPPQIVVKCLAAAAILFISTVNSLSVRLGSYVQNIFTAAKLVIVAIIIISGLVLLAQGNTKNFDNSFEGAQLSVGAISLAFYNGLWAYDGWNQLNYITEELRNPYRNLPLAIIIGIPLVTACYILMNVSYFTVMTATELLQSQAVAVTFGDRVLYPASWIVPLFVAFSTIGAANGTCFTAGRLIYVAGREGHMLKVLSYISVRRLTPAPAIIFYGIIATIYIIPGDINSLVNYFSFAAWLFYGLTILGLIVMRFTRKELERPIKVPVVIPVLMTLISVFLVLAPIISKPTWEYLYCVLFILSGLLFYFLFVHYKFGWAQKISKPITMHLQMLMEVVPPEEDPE
T1 sequence (Q07837 1-685 partner): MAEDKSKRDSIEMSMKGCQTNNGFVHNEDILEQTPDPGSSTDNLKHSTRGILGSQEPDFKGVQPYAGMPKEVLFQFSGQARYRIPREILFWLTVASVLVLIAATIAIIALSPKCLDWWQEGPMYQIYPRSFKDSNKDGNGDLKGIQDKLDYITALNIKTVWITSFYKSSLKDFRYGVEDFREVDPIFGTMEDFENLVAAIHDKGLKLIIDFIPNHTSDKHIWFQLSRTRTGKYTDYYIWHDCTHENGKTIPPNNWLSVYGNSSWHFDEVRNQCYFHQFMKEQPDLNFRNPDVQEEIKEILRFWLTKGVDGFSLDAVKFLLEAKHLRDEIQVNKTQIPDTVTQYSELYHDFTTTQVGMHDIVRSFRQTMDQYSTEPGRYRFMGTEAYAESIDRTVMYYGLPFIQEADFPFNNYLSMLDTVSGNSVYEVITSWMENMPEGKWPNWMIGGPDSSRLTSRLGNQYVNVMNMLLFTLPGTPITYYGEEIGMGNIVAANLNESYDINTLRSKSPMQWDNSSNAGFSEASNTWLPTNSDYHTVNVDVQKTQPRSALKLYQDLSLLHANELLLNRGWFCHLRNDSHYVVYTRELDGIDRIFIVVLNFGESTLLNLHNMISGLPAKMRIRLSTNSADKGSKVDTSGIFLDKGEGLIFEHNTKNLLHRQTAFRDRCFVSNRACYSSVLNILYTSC

[2] = molecular target: T1, b0,+AT (SLC7A9), in the heteromeric transporter b0,+AT-rBAT; assay: inhibition of radiolabeled L-arginine ([…]), L-homoarginine and ADMA uptake by […] L-cystine in double-transfected MDCK cells; assay type: cell-based; parameters: human b0,+AT (NM_001126335) co-expressed with human rBAT (NM_000341.3) in MDCKII cells; with rBAT (SLC3A1)
[3] = molecular target: T1, b0,+AT (SLC7A9), in the heteromeric transporter b0,+AT-rBAT; settings: read-out: radiolabeled uptake in double-transfected MDCK cells, not saturated up to 4000 μ
[4] = substrate: N=C(N)NCCCC[C@H](N)C(=O)O; assay: cells, lysate or membranes

Molecule: N=C(N)NCCC[C@H](N)C(=O)O [L-arginine]
- IC50 [1]: 116 µM

Molecule: N[C@@H](CSSC[C@H](N)C(=O)O)C(=O)O [L-cystine]
- inhibition of radiolabeled L-arginine (100 μM), L-homoarginine and ADMA uptake b [2]: the uptake of L-homoarginine (Fig. 9c) and ADMA (Fig. 9d) was significantly inhibited at the low tested concentrations

Molecule: CN(C)C(=N)NCCC[C@H](N)C(=O)O [asymmetric dimethylarginine]
- Km [3]: > 4000 µM

B1: b0,+AT (SLC7A9), in the heteromeric transporter b0,+AT-rBAT (Homo sapiens) (protein)
chain: T1 sequence (P82251 1-487)
- Km [4]: 197.0 µM
